Results reported in patent US6787318B1, “Assay for evaluating the therapeutic effectiveness of agents in reducing Alzheimer's disease pathology” (Roskamp Research Institute, LLC, priority 1999, dated 2004).

Tests used:
CD40 [1] = assay: CD40 cell-surface expression on HAEC, flow cytometry; assay type: cell-based, human; conditions: Aβ 500 nM, IFN-γ 10 U/mL; vs control peptide or Aβ-free
Protocol: Cultured HAEC were treated as described above. […] Cells were analyzed on a FACScan flow cytometer (Becton-Dickinson, Mountain View, Calif.) using LYSIS-II software. CD40-expressing cells are defined as percentage of CD40-staining cells minus the percentage of IgG1-staining cells.
CD40 expression between control peptide-treated and Aβ-free AEC was relatively similar.

CD40 [2] = assay: CD40 expression in primary cultured microglia; assay type: cell-based, mice; conditions: microglia from control littermates exposed to exogenous peptide, vs Aβ40-1 or sAPPα-695
IFN-γ = IFN-γ secretion from HAEC, ELISA; assay type: cell-based, human; conditions: 24 hours
Protocol: (§1) The assay for either IL-1β or IFN-γ was performed in strict accordance with the manufacturer's instructions for the respective assay kits.
Activation of CD40 signalling can be achieved by stimulation with either CD40L or certain anti-CD40 mAbs. Since synthetic CD40L is not commercially available, one of the anti-CD40 mAbs (clone 3/23), which has been reported to activate CD40 signalling, was used to mimic the effect of interaction of CD40-CD40L. All Aβ-treated cells were incubated with 1 μg/ml anti-CD40 mAb […]) for four hours followed by CELISA.
(§2) The resulting cell culture media were assayed for IL-1β or IFN-γ using ELISA. […] The lowest effective concentration was determined to be 100 nM for IFN-γ ([…]). The lowest effective concentration was determined to be 100 nM for IFN-γ (p<0.01) and 1 μM for IL-1β (p<0.01).

[3] = system: primary cultured cortical neurons; assay: Primary cultured microglia-mediated neuronal cell injury (micrographs, 51Cr release, LDH release); assay type: cell-based, mice; conditions: primary cultured microglia with cortical neurons
Excerpt: CD45 positive cells (brown) are microglia, while neurofilament L-staining cells (red) are neurons. […] Results shown are from one of three independent experiments with similar results; FIG. 2E is a graph showing primary cultured microglia-mediated neuronal cell injury as evidenced by ^51Cr release. Data are reported as mean ^51Cr release values±1 SEM and n=9 for each condition presented. […] N=9 for each condition presented.
Having shown that Aβ peptides activate microglia through the CD40 pathway, it was then investigated whether activation of Aβ-pretreated microglia by ligation of CD40 could mediate neuronal cell injury (23,24).

TNF-α = conditions: high doses, literature (Meda et al.); cited from earlier work
cortical neurons = assay: Cortical neurons incubated with treated N9 microglia, photomicrographs; assay type: cell-based, murine; conditions: Aβ1-42 250 nM, CD40L 0.5 μg/ml
IL-1β = IL-1β secretion from HAEC, ELISA; assay type: cell-based, human; conditions: 24 hours
Protocol: as §1, §2

In the case of “Aβ1-42: amyloid β peptide 1-42, freshly solubilized”, the “CD40 cell-surface expression, flow cytometry” value (CD40 [1]) is reported as “significantly induce CD40 expression”, the “CD40 expression in primary cultured microglia” value (CD40 [2]) is reported as “CD40 expression is increased” and the “lowest effective concentration for IFN-γ secretion” value (IFN-γ) is reported as 100 nM. For the same substance, the “IFN-γ secretion, dose dependence” value (IFN-γ; increasing concentrations) was “increases the secretion of IL-1β and IFN-γ in a dose-dependent manner”, the “neuronal degeneration / injury in micrographs” value [3] was “not detectable” and the “dose able to produce increased TNF-α production in microglial cells” value (TNF-α) was greater than 11 µM. The “change in cortical neurons” value (cortical neurons) was “no change in cortical neurons”, the “lowest effective concentration for IL-1β secretion” value (IL-1β) was 1 µM and the “IL-1β secretion, dose dependence” value (IL-1β; increasing concentrations) was “increases the secretion of IL-1β and IFN-γ in a dose-dependent manner”.
